Consider 17 compounds from patent publication US11414429B2, “Compound or pharmaceutically acceptable salt thereof” (RIKEN, priority 2016, dated 2022).

Like-named read-outs stand apart in the source and are kept apart here.

One test addresses T1, tankyrase 1 (TNKS 1) (Homo sapiens, UniProt O95271).
T1 construct: 1,024-1,327aa; made in house; host or cells: cell-free protein synthesis system
Kind of test: Tankyrase inhibitory activity test (ELISA, self-polyADP ribosylation), tankyrase 1. Format: biochemical. Particulars: tankyrase 1, ELISA, self-polyADP ribosylation; read-out: TNKS1 inhibitory activity (IC50 class). As to the method:
(§1) (Test Example 1) Tankyrase Inhibitory Activity Test
(§2) For each of the compounds obtained in Examples (the test target compounds), the tankyrase inhibitory activity (an inhibitory activity against tankyrase 1 (TNKS 1) and an inhibitory activity against tankyrase 2 (TNKS 2)) was evaluated by measuring the enzymatic activity of tankyrase 1 and the enzymatic activity of tankyrase 2 by the ELISA technique using self-polyADP ribosylation as an index. First, Flag-tag fusion tankyrase 1 (1,024-1,327aa, SAM+PARP) and tankyrase 2 (613-1, 116aa, ANK5+SAM+PARP) were each synthesized by a cell-free protein synthesis system and diluted with a Tris buffer (50 mM Tris-HCl (pH 8.0), 150 mM NaCl, 10% glycerol). Then, 50 μL of the diluted tankyrase 1 or tankyrase 2 was added to a plate on which the anti-FLAGM 2 monoclonal antibody was immobilized (Anti-FLAG high sensitivity M2 coated plate) (SIGMA Corporation), and was allowed to stand at 4° C. overnight. Thereafter, the plate was washed four times with a PBS buffer containing 0.1% Triton X-100 (PBST buffer).
(§3) Subsequently, the test target compound diluted with an assay buffer (50 mM Tris-HCl (pH 8.0), 4 mM MgCl2, 0.2 mM DTT) (using DMSO as a control) was added to each well of the plate and was allowed to stand at room temperature for 10 minutes. Thereafter, a biotin-labeled NAD solution (225 μM NAD, 25 μM 6-Biotin-17-NAD (Trevigen Inc.)) was added as a donor substrate and mixed with the resultant test target compound, and the reaction was allowed to proceed at 30° C. for 45 minutes. Instead of the biotin-labeled NAD solution, distilled water was added to blank wells. After the reaction, the plate was washed four times with the PBST buffer. Thereafter, HRP (horseradish peroxidase)-labeled streptavidin (Trevigen Inc.) diluted 1,000-fold with the PBS buffer was added to each well, and the reaction was allowed to proceed at room temperature for 20 minutes. After the plate was washed four times with the PBST buffer, a chemiluminescent substrate solution TACS-Sapphire (Trevigen Inc.) was added to each well and the reaction was allowed to proceed at room temperature for 20 minutes. Then, the chemiluminescence intensity was measured using a chemiluminescence measuring apparatus.
(§4) The residual enzyme activity in the presence of the test target compound was determined in accordance with the following formula. Based on the residual enzyme activity at multiple concentrations of the test target compound, an enzyme inhibition activity was calculated as a 50% inhibitory concentration (IC50 value) using data analysis software named Origin (LightStone Corp.).

The target in another test is T2, tankyrase 2 (TNKS 2) (Homo sapiens, UniProt Q9H2K2).
T2 construct: 613-1, 116aa; made in house; host or cells: cell-free protein synthesis system
T2 sequence (Q9H2K2 613-1166): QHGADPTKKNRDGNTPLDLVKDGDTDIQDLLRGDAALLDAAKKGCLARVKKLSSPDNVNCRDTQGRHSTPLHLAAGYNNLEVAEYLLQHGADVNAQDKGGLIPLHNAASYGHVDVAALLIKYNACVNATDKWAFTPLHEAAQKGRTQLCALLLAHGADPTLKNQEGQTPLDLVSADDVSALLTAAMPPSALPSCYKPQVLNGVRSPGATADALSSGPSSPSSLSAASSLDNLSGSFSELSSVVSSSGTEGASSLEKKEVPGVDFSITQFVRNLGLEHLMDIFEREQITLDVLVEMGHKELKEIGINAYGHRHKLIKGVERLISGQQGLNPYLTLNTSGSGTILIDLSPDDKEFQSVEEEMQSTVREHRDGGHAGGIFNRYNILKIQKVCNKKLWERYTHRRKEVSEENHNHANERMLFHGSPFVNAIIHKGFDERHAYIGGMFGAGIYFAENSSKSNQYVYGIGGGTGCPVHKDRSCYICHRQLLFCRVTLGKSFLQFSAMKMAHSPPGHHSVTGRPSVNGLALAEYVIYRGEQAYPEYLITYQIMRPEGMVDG
Kind of test: Tankyrase inhibitory activity test (ELISA, self-polyADP ribosylation), tankyrase 2. Format: biochemical. Particulars: tankyrase 2, ELISA, self-polyADP ribosylation; read-out: TNKS2 inhibitory activity (IC50 class). As to the method:
as §1, §2, §3, §4
(An ELISA detects its analyte on a solid surface through an enzyme-linked reagent.)

Test [1] relates to human colorectal cancer cell line, COLO-320DM. Kind of test: Cell proliferation inhibitory activity test (Celltiter-Glo Luminescent Cell Viability Assay). The format is cell-based. Particulars: COLO-320DM cells, 96 hours. As for the experimental part: (Test Example 2) Cell Proliferation Inhibitory Activity Test
The cell proliferation inhibitory activity of the compound obtained in each of Examples against human colorectal cancer cell line, COLO-320DM was evaluated by Celltiter-Glo Luminescent Cell Viability Assay (Promega Corporation, G7573). The COLO-320 DM cells were cultured in a RPMI-1640 medium (Wako Pure Chemical Industries, Ltd., 189-02025) containing 10% fetal bovine serum and 2 mM of glutamine. The cultured cells were washed with PBS and then detached with trypsin/EDTA to prepare a cell solution containing 3×10^4 cells/mL.
Next, the cell solution was seeded in a 96 well microplate (Thermo/Nunc, 136101) in an amount of 70 μL/well and was cultured overnight under conditions at 37° C. with 5% CO2. On the next day, 10 μL/well of a solution in which the test target compound (DMSO solution) was diluted with the cell culture medium (a final DMSO concentration of 1%) was added and the reaction was allowed to proceed under conditions at 37° C. with 5% CO2 for 96 hours (a 1% DMSO solution was used as a control). Subsequently, 80 μL/well of Celltiter-Glo Luminescent Cell Viability Assay reagent (Promega Corporation, G7573) was added, followed by agitation for 2 minutes with a shaker under shielding with aluminum foil. Thereafter, the resultant solution was allowed to stand for reaction at room temperature for 10 minutes.
After that, the luminescent signal was measured with a luminometer (Biotech, Synergy). The cell proliferation inhibitory activity was evaluated by obtaining a percentage of a cell proliferation volume of each compound-added group with respect to a cell proliferation volume (100%) of a control group in which no test target component solution was added, and calculating a value of compound concentration (GI50) required to reduce the remaining cell volume to 50% of the remaining cell volume of the control. […] The results are shown in Tables 120 to 123 together with the results of the tankyrase inhibition activity test.
(In general: ATP-based viability assays read luminescence as a measure of living cells.)

Setting [2] is: read-out: COLO-320 DM cell proliferation inhibitory activity (GI50 class).
[3] abbreviates: class symbols, read-out: COLO-320 DM (cell proliferation inhibitory activity, GI50 value).

T1 sequence (O95271 1024-1327): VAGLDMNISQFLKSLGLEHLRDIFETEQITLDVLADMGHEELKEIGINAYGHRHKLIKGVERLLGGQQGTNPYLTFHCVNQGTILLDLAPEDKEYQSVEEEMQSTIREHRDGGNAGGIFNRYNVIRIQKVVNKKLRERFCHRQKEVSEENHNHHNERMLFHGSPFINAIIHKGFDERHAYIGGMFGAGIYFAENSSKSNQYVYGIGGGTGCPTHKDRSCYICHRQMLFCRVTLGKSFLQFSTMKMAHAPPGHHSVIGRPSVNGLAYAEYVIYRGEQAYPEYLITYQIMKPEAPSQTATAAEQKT

A word on the IC50: it is the concentration at which inhibition is half-maximal. On to `CN(C)CCOc1cc(F)c2c(c1)C(=O)OC21CCN(c2nc3c(c(=O)[nH]2)CCCN3C)CC1` [Example 7, 5-[2-(dimethylamino)ethoxy]-7-fluoro-1′-(8-methyl-4-oxo-3,4,5,6,7,8-hexahydropyrido[2,3-d]pyrimidin-2-yl)-3H-spiro[isobenzofuran-1,4′-piperidin]-3-one], for which the IC50 at tankyrase 1 (TNKS 1) and on tankyrase 2 (TNKS 2) was less than 20 nM throughout. Moreover, the GI50 in test [1] (setting [2]) lay in the range of 600 to 1000 nM.

For `CN(C)C(=O)COc1cc(F)c2c(c1)C(=O)OC21CCN(c2nc3c(c(=O)[nH]2)CCCN3C)CC1` [Example 55, 2-{[7-fluoro-1′-(8-methyl-4-oxo-3,4,5,6,7,8-hexahydro-pyrido[2,3-d)pyrimidin-2-yl)-3-oxo-3H-spiro[isobenzo-furan-1,4′-piperidin)-5-yl)oxy}-N,N-dimethyl-acetamid], the IC50 on tankyrase 1 (TNKS 1) and on tankyrase 2 (TNKS 2) was less than 20 nM throughout. For the same compound, the GI50 in test [1] (setting [2]) was in the range of 600 to 1000 nM.

Turning to `COc1cccc(CN2CC3(CCN(c4nc5c(c(=O)[nH]4)CCCC5)CC3)c3ccccc32)c1` [Example 99, 2-[1-(3-methoxy-benzyl)spiro[indoline-3,4′-piperidin]-1′-yl]-5,6,7,8-tetrahydroquinazolin-4(3H)-one], the IC50 is 20 to 200 nM on tankyrase 1 (TNKS 1) and less than 20 nM on tankyrase 2 (TNKS 2). In test [1] (setting [2]), the GI50 lay in the range of 600 to 1000 nM.

Take `O=c1[nH]c(N2CCC3(CC2)CN(Cc2ccncc2)c2ccccc23)nc2c1CCCC2` [Example 100, 2-[1-(pyridin-4-ylmethyl)spiro[indoline-3,4′-piperidin]-1′-yl]-5,6,7,8-tetrahydroquinazolin-4(3H)-one]: the IC50 is less than 20 nM at tankyrase 1 (TNKS 1) and 20 to 200 nM on tankyrase 2 (TNKS 2). In addition, the GI50 in test [1] (setting [2]) is 600 to 1000 nM.

With `O=c1[nH]c(N2CCC3(CC2)CN(Cc2cccnc2)c2ccccc23)nc2c1CCCC2` [Example 101, 2-[1-(pyridin-3-ylmethyl)spiro[indoline-3,4′-piperidin]-1′-yl]-5,6,7,8-tetrahydroquinazolin-4(3H)-one], the IC50 at tankyrase 1 (TNKS 1) and on tankyrase 2 (TNKS 2) was 20 to 200 nM in each case. Also, the GI50 in test [1] (setting [2]) is 600 to 1000 nM.

For the compound `COc1ccc2c(c1)C1(CCN(c3nc4c(c(=O)[nH]3)CCCC4)CC1)CN2C` [Example 147, 2-(5-methoxy-1-meth-ylspiro[indoline-3,4′-piperidin]-1′-yl)-5,6,7,8-tetrahydroquinazolin-4(3H)-one], the values for the IC50 on tankyrase 1 (TNKS 1) and on tankyrase 2 (TNKS 2) were 20 to 200 nM and less than 20 nM, respectively. Also, in test [1] (setting [2]), the GI50 was in the range of 600 to 1000 nM.

Regarding `CN1CCCc2c1nc(N1CCC3(CC1)C(=O)Nc1cccc(F)c13)[nH]c2=O` [Example 185, 2-(4-fluoro-2-oxospiro [indoline-3,4′-piperidin]-1′-yl)-8-methyl-5,6,7,8-tetrahydro-pyrido[2,3-d] pyrimidine-4(3H)-one], the 50% inhibitory concentration (IC50) on tankyrase 1 (TNKS 1) and on tankyrase 2 (TNKS 2) was less than 20 nM throughout. Also, the GI50 in test [1] (setting [2]) was 100 to 600 nM.

In the case of `CCOC(=O)c1cc(Cl)c2c(c1)N(Cc1cccnc1)CC21CCN(c2nc3c(c(=O)[nH]2)CCCC3)CC1` [Example 193, ethyl 4-chloro-1′-(4-oxo-3,4,5,6,7,8-hexahydroquinazolin-2-yl)-1-(pyridin-3-yl) methylspiro [indoline-3,4′-piperidine]-6-carboxylate], the IC50 on tankyrase 1 (TNKS 1) and at tankyrase 2 (TNKS 2) was 20 to 200 nM throughout. The GI50 in test [1] (setting [2]) fell in the range of 100 to 600 nM.

With `O=C(NCCN1CCOCC1)c1cc(Cl)c2c(c1)N(Cc1cccnc1)CC21CCN(c2nc3c(c(=O)[nH]2)CCCC3)CC1` [Example 196, 4-chloro-N-(2-morpho-linoethyl)-1′-(4-oxo-3,4,5,6,7,8-hexahydro-quinazolin-2-yl)-1-(pyridin-3-ylmethyl) spiro[indoline-3,4′-piperidine]-6-carboxamide], the IC50 on tankyrase 1 (TNKS 1) and at tankyrase 2 (TNKS 2) was less than 20 nM in each case. Moreover, the GI50 in test [1] (setting [2]) was 600 to 1000 nM.

With `O=c1[nH]c(N2CCC3(CC2)CN(Cc2cccnc2)c2cc(Cl)ccc23)nc2c1CCCC2` [Example 218, 2-(6-chloro-1-(pyridin-3-ylmethyl)spiro [indoline-3,4′-piperidin]-1′-yl)-5,6,7,8-tetrahydro-quinazolin-4(3H)-one], the IC50 on tankyrase 1 (TNKS 1) is 20 to 200 nM; on tankyrase 2 (TNKS 2), less than 20 nM. Also, the GI50 in test [1] (setting [2]) fell in the range of 600 to 1000 nM.

For `O=c1[nH]c(N2CCC3(CC2)CN(Cc2cccnc2)c2cccc(Cl)c23)nc2c1CCCC2` [Example 221, 2-[4-chloro-1-(pyridin-3-yl)methylspiro [indoline-3,4′-piperidin] 1′-yl)-5,6,7,8-tetrahydro quinazolin-4(3H)-one], the IC50 at tankyrase 1 (TNKS 1) and on tankyrase 2 (TNKS 2) was less than 20 nM in each case. Moreover, in test [1] (setting [2]), the GI50 lay in the range of 100 to 600 nM.

On to `O=C1N(Cc2cccnc2)c2cccc(Cl)c2C12CCN(c1nc3c(c(=O)[nH]1)CCCC3)CC2` [Example 226, 4-chloro-1′-(4-oxo-3,4,5,6,7,8-hexahydroquinazolin-2-yl)-1-(pyridin-3-ylmethyl) spiro [indoline-3,4′-piperidin]-2-one], for which the IC50 on tankyrase 1 (TNKS 1) and on tankyrase 2 (TNKS 2) was less than 20 nM in each case. Moreover, the GI50 in test [1] (setting [2]) lay in the range of 100 to 600 nM.

Take `CN1C(=O)C2(CCN(c3nc4c(c(=O)[nH]3)CCCC4)CC2)c2c(Cl)cc(O)cc21` [Example 234, 4-chloro-6-hydroxy-1-methyl-1′-(4-oxo-3,4,5,6,7,8-hexahydro-quinazolin-2-yl)spiro [indoline-3,4′-piperidin]-2-one]: the IC50 at tankyrase 1 (TNKS 1) and on tankyrase 2 (TNKS 2) was less than 20 nM in each case. Moreover, the GI50 in test [1] (setting [2]) was 100 to 600 nM.

Turning to `O=c1[nH]c(N2CCC3(CC2)CN(Cc2cccnc2)c2cc(F)cc(F)c23)nc2c1CCCC2` [Example 251, 2-[4,6-difluoro-1-(pyridin-3-yl)methyl-spiro [indoline-3,4′-piperidin]-1′-yl]-5,6,7,8-tetrahydro-quinazolin-4(3H)-one], the half-maximal inhibitory concentration (IC50) at tankyrase 1 (TNKS 1) and at tankyrase 2 (TNKS 2) was less than 20 nM in each case. In test [1] (setting [2]), the GI50 is 100 to 600 nM.

Take `CN1CCCc2c1nc(N1CCC3(CC1)C(=O)N(CC(F)(F)F)c1cc(OCC(=O)O)cc(F)c13)[nH]c2=O` [Example 408]: the GI50 in test [1] (setting [3]) was less than 100 nM.

Take `CN1CCCc2c1nc(N1CCC3(CC1)C(=O)N(C)c1c(OC4CCOC4)ccc(Cl)c13)[nH]c2=O` (stereo not drawn) [Example 433, 4-chloro-1′-(4-hydroxy-8-methyl-6,7-dihydro-5H-pyrido[2,3-d]pyrimidin-2-yl)-1-methyl-7-(oxolan-3-yloxy) spiro[indole-3,4′-piperidin]-2-one]: in test [1] (setting [3]), the GI50 is less than 100 nM.

`CN1CCCc2c1nc(N1CCC3(CC1)C(=O)N(C)c1cc(C4CCC(O)CC4)cc(F)c13)[nH]c2=O` (stereo not drawn) [Example 468, 4-fluoro-6-(4-hydroxycyclohexyl)-1-methyl-1′-(8-methyl-4-oxo-3,4,5,6,7,8-hexahydropyrido[2,3-d]pyrimidin-2-yl)spiro[indole-3,4′-piperidine]-2(1H)-one]: the GI50 in test [1] (setting [3]) is less than 100 nM.
